What follows are molecules tested on Amaranthus retroflexus (AMARE) (assay: Example B post-emergence herbicidal activity, glasshouse pot test). Conditions: 312 h, rate 250 g/ha, evaluated after 13 days, read-out: Post-emergence activity AMARE (100=total damage to plant; 0=no damage to plant).
Format: in vivo
Method in brief: (§1)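 Damage rated 13 days after treatment on a 0 (no damage) to 100 (total damage) scale. Spray of acetone/water (50:50) with 0.5% Tween 20 went onto soil-sown pots at day 1 (pre-emergence) or day 8 (post-emergence); glasshouse kept at 24/16 °C, 14 h light, 65% humidity.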

Compound | pest or weed control at 250 g/ha [%]
CCc1ccc(-c2ccc(C(F)F)cc2)cc1C1=C(O)C(C)(C)OC(C)(C)C1=O [Compound A-147] | 0
CC1(C)OC(C)(C)C(O)=C(c2cc(-c3ccc(Cl)cc3)ccc2Br)C1=O [Compound A-149] | 20
CCc1ccc(-c2ccc(Cl)cn2)cc1C1=C(O)C(C)(C)OC(C)(C)C1=O [Compound A-150] | 0
CCc1ccc(-c2ccc(OC(F)F)cc2)cc1C1=C(O)C(C)(C)OC(C)(C)C1=O [Compound A-151] | 0
CCc1ccc(-c2cc(F)c(Cl)c(F)c2)cc1C1=C(O)C(C)(C)OC(C)(C)C1=O [Compound A-152] | 0

These molecules were tested on Avena fatua (AVEFA) in the same assay as above. Conditions: 312 h, rate 250 g/ha, evaluated after 13 days, read-out: Post-emergence activity AVEFA (100=total damage to plant; 0=no damage to plant).
Format: in vivo
Method in brief: as §1

Compound | pest or weed control at 250 g/ha [%]
CCc1ccc(-c2ccc(C(F)F)cc2)cc1C1=C(O)C(C)(C)OC(C)(C)C1=O [Compound A-147] | 90
CC1(C)OC(C)(C)C(O)=C(c2cc(-c3ccc(Cl)cc3)ccc2Br)C1=O [Compound A-149] | 70
CCc1ccc(-c2ccc(Cl)cn2)cc1C1=C(O)C(C)(C)OC(C)(C)C1=O [Compound A-150] | 80
CCc1ccc(-c2ccc(OC(F)F)cc2)cc1C1=C(O)C(C)(C)OC(C)(C)C1=O [Compound A-151] | 100
CCc1ccc(-c2cc(F)c(Cl)c(F)c2)cc1C1=C(O)C(C)(C)OC(C)(C)C1=O [Compound A-152] | 100

Each molecule was assayed on Alopecurus myosuroides (ALOMY) in the same assay as above. Conditions: 312 h, rate 250 g/ha, evaluated after 13 days, read-out: Post-emergence activity ALOMY (100=total damage to plant; 0=no damage to plant).
Format: in vivo
Method in brief: as §1

Compound | pest or weed control at 250 g/ha [%]
CCc1ccc(-c2ccc(C(F)F)cc2)cc1C1=C(O)C(C)(C)OC(C)(C)C1=O [Compound A-147] | 100
CC1(C)OC(C)(C)C(O)=C(c2cc(-c3ccc(Cl)cc3)ccc2Br)C1=O [Compound A-149] | 90
CCc1ccc(-c2ccc(Cl)cn2)cc1C1=C(O)C(C)(C)OC(C)(C)C1=O [Compound A-150] | 90
CCc1ccc(-c2ccc(OC(F)F)cc2)cc1C1=C(O)C(C)(C)OC(C)(C)C1=O [Compound A-151] | 100
CCc1ccc(-c2cc(F)c(Cl)c(F)c2)cc1C1=C(O)C(C)(C)OC(C)(C)C1=O [Compound A-152] | 100

The molecules below were run on Setaria faberi (SETFA) in the same assay as above. Conditions: 312 h, rate 250 g/ha, evaluated after 13 days, read-out: Post-emergence activity SETFA (100=total damage to plant; 0=no damage to plant).
Format: in vivo
Method in brief: as §1

Compound | pest or weed control at 250 g/ha [%]
CCc1ccc(-c2ccc(C(F)F)cc2)cc1C1=C(O)C(C)(C)OC(C)(C)C1=O [Compound A-147] | 70
CC1(C)OC(C)(C)C(O)=C(c2cc(-c3ccc(Cl)cc3)ccc2Br)C1=O [Compound A-149] | 100
CCc1ccc(-c2ccc(Cl)cn2)cc1C1=C(O)C(C)(C)OC(C)(C)C1=O [Compound A-150] | 100
CCc1ccc(-c2ccc(OC(F)F)cc2)cc1C1=C(O)C(C)(C)OC(C)(C)C1=O [Compound A-151] | 100
CCc1ccc(-c2cc(F)c(Cl)c(F)c2)cc1C1=C(O)C(C)(C)OC(C)(C)C1=O [Compound A-152] | 100

Each molecule was assayed on Echinochloa crus-galli (ECHCG) in the same assay as above. Conditions: 312 h, rate 250 g/ha, evaluated after 13 days, read-out: Post-emergence activity ECHCG (100=total damage to plant; 0=no damage to plant).
Format: in vivo
Method in brief: as §1

Compound | pest or weed control at 250 g/ha [%]
CCc1ccc(-c2ccc(C(F)F)cc2)cc1C1=C(O)C(C)(C)OC(C)(C)C1=O [Compound A-147] | 100
CC1(C)OC(C)(C)C(O)=C(c2cc(-c3ccc(Cl)cc3)ccc2Br)C1=O [Compound A-149] | 100
CCc1ccc(-c2ccc(Cl)cn2)cc1C1=C(O)C(C)(C)OC(C)(C)C1=O [Compound A-150] | 100
CCc1ccc(-c2ccc(OC(F)F)cc2)cc1C1=C(O)C(C)(C)OC(C)(C)C1=O [Compound A-151] | 100
CCc1ccc(-c2cc(F)c(Cl)c(F)c2)cc1C1=C(O)C(C)(C)OC(C)(C)C1=O [Compound A-152] | 100

What follows are molecules tested on Amaranthus retroflexus (AMARE) (assay: Example B pre-emergence herbicidal activity, glasshouse pot test). Conditions: 312 h, rate 250 g/ha, evaluated after 13 days, read-out: Pre-emergence activity AMARE (100=total damage to plant; 0=no damage to plant).
Format: in vivo
Method in brief: as §1

Compound | pest or weed control at 250 g/ha [%]
CCc1ccc(-c2ccc(C(F)F)cc2)cc1C1=C(O)C(C)(C)OC(C)(C)C1=O [Compound A-147] | 0
CC1(C)OC(C)(C)C(O)=C(c2cc(-c3ccc(Cl)cc3)ccc2Br)C1=O [Compound A-149] | 0
CCc1ccc(-c2ccc(Cl)cn2)cc1C1=C(O)C(C)(C)OC(C)(C)C1=O [Compound A-150] | 0
CCc1ccc(-c2ccc(OC(F)F)cc2)cc1C1=C(O)C(C)(C)OC(C)(C)C1=O [Compound A-151] | 0
CCc1ccc(-c2cc(F)c(Cl)c(F)c2)cc1C1=C(O)C(C)(C)OC(C)(C)C1=O [Compound A-152] | 0

These molecules were tested on Avena fatua (AVEFA) in the same assay as above. Conditions: 312 h, rate 250 g/ha, evaluated after 13 days, read-out: Pre-emergence activity AVEFA (100=total damage to plant; 0=no damage to plant).
Format: in vivo
Method in brief: as §1

Compound | pest or weed control at 250 g/ha [%]
CCc1ccc(-c2ccc(C(F)F)cc2)cc1C1=C(O)C(C)(C)OC(C)(C)C1=O [Compound A-147] | 60
CC1(C)OC(C)(C)C(O)=C(c2cc(-c3ccc(Cl)cc3)ccc2Br)C1=O [Compound A-149] | 30
CCc1ccc(-c2ccc(Cl)cn2)cc1C1=C(O)C(C)(C)OC(C)(C)C1=O [Compound A-150] | 40
CCc1ccc(-c2ccc(OC(F)F)cc2)cc1C1=C(O)C(C)(C)OC(C)(C)C1=O [Compound A-151] | 100
CCc1ccc(-c2cc(F)c(Cl)c(F)c2)cc1C1=C(O)C(C)(C)OC(C)(C)C1=O [Compound A-152] | 90

What follows are molecules tested on Alopecurus myosuroides (ALOMY) in the same assay as above. Conditions: 312 h, rate 250 g/ha, evaluated after 13 days, read-out: Pre-emergence activity ALOMY (100=total damage to plant; 0=no damage to plant).
Format: in vivo
Method in brief: as §1

Compound | pest or weed control at 250 g/ha [%]
CCc1ccc(-c2ccc(C(F)F)cc2)cc1C1=C(O)C(C)(C)OC(C)(C)C1=O [Compound A-147] | 100
CC1(C)OC(C)(C)C(O)=C(c2cc(-c3ccc(Cl)cc3)ccc2Br)C1=O [Compound A-149] | 60
CCc1ccc(-c2ccc(Cl)cn2)cc1C1=C(O)C(C)(C)OC(C)(C)C1=O [Compound A-150] | 90
CCc1ccc(-c2ccc(OC(F)F)cc2)cc1C1=C(O)C(C)(C)OC(C)(C)C1=O [Compound A-151] | 100
CCc1ccc(-c2cc(F)c(Cl)c(F)c2)cc1C1=C(O)C(C)(C)OC(C)(C)C1=O [Compound A-152] | 70

These molecules were tested on Setaria faberi (SETFA) in the same assay as above. Conditions: 312 h, rate 250 g/ha, evaluated after 13 days, read-out: Pre-emergence activity SETFA (100=total damage to plant; 0=no damage to plant).
Format: in vivo
Method in brief: as §1

Compound | pest or weed control at 250 g/ha [%]
CCc1ccc(-c2ccc(C(F)F)cc2)cc1C1=C(O)C(C)(C)OC(C)(C)C1=O [Compound A-147] | 70
CC1(C)OC(C)(C)C(O)=C(c2cc(-c3ccc(Cl)cc3)ccc2Br)C1=O [Compound A-149] | 90
CCc1ccc(-c2ccc(Cl)cn2)cc1C1=C(O)C(C)(C)OC(C)(C)C1=O [Compound A-150] | 100
CCc1ccc(-c2ccc(OC(F)F)cc2)cc1C1=C(O)C(C)(C)OC(C)(C)C1=O [Compound A-151] | 100
CCc1ccc(-c2cc(F)c(Cl)c(F)c2)cc1C1=C(O)C(C)(C)OC(C)(C)C1=O [Compound A-152] | 100

The molecules below were run on Echinochloa crus-galli (ECHCG) in the same assay as above. Conditions: 312 h, rate 250 g/ha, evaluated after 13 days, read-out: Pre-emergence activity ECHCG (100=total damage to plant; 0=no damage to plant).
Format: in vivo
Method in brief: as §1

Compound | pest or weed control at 250 g/ha [%]
CCc1ccc(-c2ccc(C(F)F)cc2)cc1C1=C(O)C(C)(C)OC(C)(C)C1=O [Compound A-147] | 100
CC1(C)OC(C)(C)C(O)=C(c2cc(-c3ccc(Cl)cc3)ccc2Br)C1=O [Compound A-149] | 100
CCc1ccc(-c2ccc(Cl)cn2)cc1C1=C(O)C(C)(C)OC(C)(C)C1=O [Compound A-150] | 100
CCc1ccc(-c2ccc(OC(F)F)cc2)cc1C1=C(O)C(C)(C)OC(C)(C)C1=O [Compound A-151] | 100
CCc1ccc(-c2cc(F)c(Cl)c(F)c2)cc1C1=C(O)C(C)(C)OC(C)(C)C1=O [Compound A-152] | 100

— patent US8680012B2, “4-phenyl-pyrane-3,5-diones,4-phenyl-thiopyrane-3,6-diones and cyclohexanetriones as novel herbicides” (Syngenta Crop Protection LLC, priority 2006, dated 2014)
